# Source: paper PMC9050848, “Carbamoyl-N-aryl-imine-urea: a new framework to obtain a putative leishmanicidal drug-candidate” (RSC Advances, 2020)
# Assay: Toxicity in treated infected mice (survival, spleen weight, serum biochemistry)
# Assay type: in vivo
# Settings: 30 μmol per kg per day × 28 days
# Method: The survival of BALB/c mice infected with L. amazonensis untreated and treated during 28 days with the daily dose of 30 μmol kg^−1 with meglumine antimoniate, miltefosine and 10e (LASSBio-1736) was analyzed. Animal mortality was not observed for the groups treated with 10e and miltefosine, while 20% of death was identified from the 25th day of treatment with meglumine antimoniate (Fig. 11). After the end of treatment, the animal's toxicity was investigated looking for any alterations on spleen weight and on alanine aminotransferase (ALT), aspartate aminotransferase (AST), creatinine (CREA) and urea serum levels.
# This study (protocol number 2013.02) was approved by the Ethics Committee for Animal Experimentation of the Federal University of Alagoas (Brazil). All animals received humane care in compliance with the ‘Principles of laboratory animal care’ formulated by the National Society for Medical Research and the ‘Guide for the care and use of laboratory animals’ prepared by the National Academy of Sciences (Washington, DC). Then, 1 × 10^5 stationary promastigotes (5 days of culture in Schneider's medium) of L. amazonensis were inoculated subcutaneously into the right ear dermis of 6 week-old female BALB/c mice weighing ca. 20 g. and later treated with 10e (i.p.), miltefosine (p.o.) or meglumine antimoniate (i.p.) at 30 μmol kg^−1 × 28 days. The vehicle to solubilize 10e (LASSBio-1736) and standard drugs was Tween 20 (50 μL) and sterile water for injection, which was also administrated by i.p. route in two controls groups (non-infected control and infected control). The lesion size was measured using a paquimeter.[32] The parasite loads of infected ears and draining lymph nodes were determined using a quantitative limiting-dilution assay.[33] Toxicity was also evaluated due to alterations on spleen weight and by biochemistry dosages in plasma, performed according to the manufacturer's instructions (Doles, BRA). Data obtained from experiments were expressed as the mean ± S.E.M. and statistical differences between the treated and the vehicle groups of experiments were evaluated by ANOVA and Dunnett hoc tests.
smiles,measurement,setting,value
"O=C(N/N=C/c1ccc(C(F)(F)F)cc1)NNC(=O)c1ccc(Cl)cc1Cl [LASSBio-1736 (10e), 2,4-dichloro-phenylcarbamoyl-N-4-trifluoromethylphenylimine-urea]","Serum levels of ALT, AST, creatinine and urea","after end of treatment, i.p.",did not significantly interfere
same,Spleen weight,last day of treatment,did not alter animal's spleen weight
